In brackets after ≈: the same amount, converted by molar mass.
Key:
[1] = test system: Multidrug-resistant Pseudomonas aeruginosa (MDRPA) (CCARM 2095); assay: Chequerboard assay (synergy with clinically used antibiotics); format: cell-based; conditions: for FICA (fractional inhibitory concentration of antibiotic): [A]/MICA; for MICA (MIC of antibiotic alone): MDRPA CCARM 2095, 37 °C, 22 h, unit printed only in b27, not in the table; for [A] (MIC of antibiotic in combination): MDRPA CCARM 2095, unit not given
Procedure: Briefly, 2-fold serial dilutions of each antibiotic and each polymer were prepared and added in a 1:1 volume ratio to the wells of a 96-well plate. An equal volume of bacterial solution (100 μL) at ∼10^6 CFU/mL was then seeded into each well. The plates were incubated in a shaking incubator at 37 °C and 200 rpm and read after 22 h. Bacterial growth was assessed visually or spectrophotometrically via OD600 readings taken by a microplate ELISA reader (Molecular Devices, Sunnyvale, CA, USA). The fractional inhibitory concentration index (FICI) for each drug combination was calculated using the following equation: FICI = FICA + FICB = [A]/MICA + [B]/MICB, where MICA and MICB are the MIC of antibiotic and triazine based monomer (TZP3 or TZP5), respectively, while [A] and [B] are the MIC of antibiotic and triazine based monomer (TZP3 or TZP5) in combination, respectively. FICI of ≤ 0.5 was interpreted as synergy, 0.5 < FICI ≤ 1.0 as additive, 1.0 < FICI ≤ 4.0 as indifferent, and a FICI > 4.0 as antagonism.

[2] = test system: Bacillus subtilis (KCTC 3068); assay: Antimicrobial activity, broth microdilution MIC; format: cell-based; conditions: 2 × 10^6 CFU/mL in 1% peptone, 37 °C, 18–22 h, 100% inhibition of growth, performed three times
Procedure: (§1) The bacterial strains employed in the experiment were Escherichia coli (KCTC 1682), Pseudomonas aeruginosa (KCTC 1637), Bacillus subtilis (KCTC 3068), Staphylococcus aureus (KCTC 1621), three methicillin-resistant Staphylococcus aureus (CCARM 3089, 3090 and 3095), two multidrug-resistant Pseudomonas aeruginosa (CCARM 2095 and 2109) and vancomycin-resistant Enterococcus faecium (ATCC 51559). The antimicrobial activities of polymers were determined by the broth microdilution method, and the procedures were used as previously reported. Briefly, bacteria grown to mid-logarithmic phase in LB broth were diluted to 2 × 10^6 CFU/mL in 1% peptone and added to serial two-fold dilutions of different polymers ranging from 1 to 64 μg/mL. The plates were incubated in a shaking incubator at 37 °C for 18–22 h. The minimum inhibitory concentration (MIC) was determined by confirming the absence of bacterial growth both visually and spectrophotometrically by OD600 readings taken by a microplate ELISA reader (Molecular Devices, Sunnyvale, CA, USA). All measurements were performed three times.

[3] = test system: Escherichia coli (KCTC 1682); assay: Antimicrobial activity, broth microdilution MIC; format: cell-based; conditions: 2 × 10^6 CFU/mL in 1% peptone, 37 °C, 18–22 h, 100% inhibition of growth, performed three times
Procedure: as §1

[4] = test system: Pseudomonas aeruginosa (KCTC 1637); assay: Antimicrobial activity, broth microdilution MIC; format: cell-based; conditions: 2 × 10^6 CFU/mL in 1% peptone, 37 °C, 18–22 h, 100% inhibition of growth, performed three times
Procedure: as §1

[5] = test system: Staphylococcus aureus (KCTC 1621); assay: Antimicrobial activity, broth microdilution MIC; format: cell-based; conditions: 2 × 10^6 CFU/mL in 1% peptone, 37 °C, 18–22 h, 100% inhibition of growth, performed three times
Procedure: as §1

[6] = test system: selected bacterial strains; assay: Geometric mean of MIC values over the bacterial strains; format: cell-based; conditions: geometric mean of MIC values from selected six bacterial strains (footnote b)
Procedure: as §1

[7] = test system: Methicillin-resistant Staphylococcus aureus (MRSA) CCARM 3089; format: cell-based; conditions: broth microdilution, 37 °C, 18–22 h
Procedure: as §1

[8] = test system: Methicillin-resistant Staphylococcus aureus (MRSA) CCARM 3090; format: cell-based; conditions: broth microdilution, 37 °C, 18–22 h
Procedure: as §1

[9] = test system: Methicillin-resistant Staphylococcus aureus (MRSA) CCARM 3095; format: cell-based; conditions: broth microdilution, 37 °C, 18–22 h
Procedure: as §1

[10] = test system: Multidrug-resistant Pseudomonas aeruginosa (MDRPA) CCARM 2095; format: cell-based; conditions: broth microdilution, 37 °C, 18–22 h
Procedure: as §1

[11] = test system: Multidrug-resistant Pseudomonas aeruginosa (MDRPA) CCARM 2109; format: cell-based; conditions: broth microdilution, 37 °C, 18–22 h
Procedure: as §1

trypsin = assay: Protease stability, radial diffusion assay after tryptic digestion; format: in vitro ADME; conditions: trypsin 0.2 μg/mL in PBS, 37 °C (24 h, 4 h elsewhere in the source), clearance zones against E.coli and S.aureus
Procedure: The protease stability of triazine based polymers (TZP3 and TZP5) was performed by the radial diffusion assay as described previously. Briefly, a bacteria suspension (2×10^6 CFU/mL in LB) was mixed with 0.7% agarose. This mixture was poured into a 10-cm petri dish, and it dispersed rapidly. […] The reaction was stopped by freezing with liquid nitrogen, after which 10 μL aliquots were placed in each circle paper, put on the agarose plates, and then incubated at 37 °C overnight. The diameters of the bacterial clearance zones surrounding the circle paper were measured for the quantitation of inhibitory activities.

Row | Structure (SMILES) | MIC Bacillus subtilis (KCTC 3068) [2] | MIC Escherichia coli (KCTC 1682) [3] | MIC Pseudomonas aeruginosa (KCTC 1637) [4] | MIC Staphylococcus aureus (KCTC 1621) [5] | GM (geometric mean of MIC values) [6] | also measured
1 | O=C(N[C@H](CO)[C@H](O)c1ccc([N+](=O)[O-])cc1)C(Cl)Cl [Chloramphenicol, chloramphenicol, reference compound] |  |  |  |  |  | FICA (fractional inhibitory concentration of antibiotic) ([1]; in combination with TZP3): 0.031; FICA (fractional inhibitory concentration of antibiotic) ([1]; in combination with TZP5): 0.031; MICA (MIC of antibiotic alone) [1]: 512 µM; MICA (MIC of antibiotic alone) ([1]; listed as chloramphenicol): 512−1024 μM; [A] (MIC of antibiotic in combination) ([1]; in combination with TZP3): 16; [A] (MIC of antibiotic in combination) ([1]; in combination with TZP5): 16
2 | Cc1onc(-c2ccccc2)c1C(=O)N[C@@H]1C(=O)N2[C@@H]1SC(C)(C)[C@@H]2C(=O)O [Oxacillin, oxacillin, reference compound] |  |  |  |  |  | FICA (fractional inhibitory concentration of antibiotic) ([1]; in combination with TZP3): 1.0; FICA (fractional inhibitory concentration of antibiotic) ([1]; in combination with TZP5): 1.0; MICA (MIC of antibiotic alone) [1]: 1024 µM; MICA (MIC of antibiotic alone) ([1]; listed as oxacillin): 512−1024 μM; [A] (MIC of antibiotic in combination) ([1]; in combination with TZP3): 1024; [A] (MIC of antibiotic in combination) ([1]; in combination with TZP5): 1024
3 | NCCCN(CCCN)c1nc(N)nc(NCCNc2nc(Cl)nc(N(CCCN)CCCN)n2)n1 [TZP1] | 64 [121.7] μg/mL | 32 [60.8] μg/mL | 64 [121.7] μg/mL | 32 [60.8] μg/mL | 48.0 [91.3] μg/mL | 
4 | N=C(N)NCCCN(CCCNC(=N)N)c1nc(N)nc(NCCNc2nc(Cl)nc(N(Cc3ccccc3)Cc3ccccc3)n2)n1 [TZP2] | 2 [3] μg/mL | 2 [3] μg/mL | 8 [11.8] μg/mL | 2 [3] μg/mL | 3.5 [5.2] μg/mL | 
5 | NCCCN(CCCN)c1nc(N)nc(NCCNc2nc(NCCNc3nc(Cl)nc(N(Cc4ccccc4)Cc4ccccc4)n3)nc(N(CCCN)CCCN)n2)n1 [TZP4] | 2 [2.3] μg/mL | 2 [2.3] μg/mL | 4 [4.7] μg/mL | 2 [2.3] μg/mL | 2.5 [2.9] μg/mL | 
6 | N=C(N)NCCCN(CCCNC(=N)N)c1nc(Cl)nc(NCCNc2nc(NCCNc3nc(N)nc(N(CCCN)CCCN)n3)nc(N(Cc3ccccc3)Cc3ccccc3)n2)n1 [TZP6] | 2 [2.1] μg/mL | 2 [2.1] μg/mL | 4 [4.2] μg/mL | 2 [2.1] μg/mL | 2.5 [2.7] μg/mL | 
7 | NCCCN(CCCN)c1nc(N)nc(NCCNc2nc(NCCNc3nc(Cl)nc(N(CCCN)CCCN)n3)nc(N(CCCN)CCCN)n2)n1 [TZP7] | 8 [10.1] μg/mL | 16 [20.2] μg/mL | 8 [10.1] μg/mL | 16 [20.2] μg/mL | 12.0 [15.2] μg/mL | 
8 | NCCCN(CCCN)c1nc(NCCNc2nc(N)nc(N(Cc3ccccc3)Cc3ccccc3)n2)nc(NCCNc2nc(Cl)nc(N(Cc3ccccc3)Cc3ccccc3)n2)n1 [TZP8] | 8 [8.7] μg/mL | 8 [8.7] μg/mL | >64 [>69.3] μg/mL | 8 [8.7] μg/mL | 38.0 [41.1] μg/mL | 
9 | N=C(N)NCCCN(CCCNC(=N)N)c1nc(N)nc(NCCNc2nc(NCCNc3nc(Cl)nc(N(CCCNC(=N)N)CCCNC(=N)N)n3)nc(N(Cc3ccccc3)Cc3ccccc3)n2)n1 [TZP9] | 2 [1.9] μg/mL | 2 [1.9] μg/mL | 8 [7.8] μg/mL | 2 [1.9] μg/mL | 3.5 [3.4] μg/mL | 
10 | N=C(N)NCCCN(CCCNC(=N)N)c1nc(Cl)nc(NCCNc2nc(NCCNc3nc(N)nc(NCCC(c4ccccc4)c4ccccc4)n3)nc(N(CCCNC(=N)N)CCCNC(=N)N)n2)n1 [TZP10] | 4 [3.8] μg/mL | 4 [3.8] μg/mL | 16 [15.4] μg/mL | 4 [3.8] μg/mL | 7.0 [6.7] μg/mL | 
11 | N=C(N)NCCCN(CCCNC(=N)N)c1nc(Cl)nc(NCCNc2nc(NCCNc3nc(NCCNc4nc(N)nc(NCCC(c5ccccc5)c5ccccc5)n4)nc(N(CCCNC(=N)N)CCCNC(=N)N)n3)nc(NCCC(c3ccccc3)c3ccccc3)n2)n1 [TZP11] | 8 [9.2] μg/mL | 8 [9.2] μg/mL | 16 [18.3] μg/mL | 8 [9.2] μg/mL | 10.0 µg/mL | 
12 | NCCCN(CCCN)c1nc(Cl)nc(NCCNc2nc(NCCNc3nc(NCCNc4nc(N)nc(NCCC(c5ccccc5)c5ccccc5)n4)nc(N(CCCN)CCCN)n3)nc(NCCC(c3ccccc3)c3ccccc3)n2)n1 [TZP12] | 8 [5.8] μg/mL | 4 [2.9] μg/mL | 16 [11.5] μg/mL | 4 [2.9] μg/mL | 8.0 [5.8] μg/mL | 
13 | NCCCN(CCCN)c1nc(N)nc(NCCNc2nc(NCCNc3nc(NCCNc4nc(NCCNc5nc(Cl)nc(N(CCCN)CCCN)n5)nc(N(CCCN)CCCN)n4)nc(N(CCCN)CCCN)n3)nc(N(CCCN)CCCN)n2)n1 [TZP13] | 4 [3.3] μg/mL | 8 [6.6] μg/mL | 8 [6.6] μg/mL | 8 [6.6] μg/mL | 7.0 [5.7] μg/mL | 
14 | CC[C@H](C)[C@H](NC(=O)CN)C(=O)NCC(=O)N[C@@H](C)C(=O)N[C@H](C(=O)N[C@@H](CC(C)C)C(=O)N[C@@H](CCCCN)C(=O)N[C@H](C(=O)N[C@@H](CC(C)C)C(=O)N[C@H](C(=O)N[C@H](C(=O)NCC(=O)N[C@@H](CC(C)C)C(=O)N1CCC[C@H]1C(=O)N[C@@H](C)C(=O)N[C@@H](CC(C)C)C(=O)N[C@H](C(=O)N[C@@H](CO)C(=O)N[C@@H](Cc1c[nH]c2ccccc12)C(=O)N[C@H](C(=O)N[C@@H](CCCCN)C(=O)N[C@@H](CCCNC(=N)N)C(=O)N[C@@H](CCCCN)C(=O)N[C@@H](CCCNC(=N)N)C(=O)N[C@@H](CCC(N)=O)C(=O)N[C@@H](CCC(N)=O)C(N)=O)[C@@H](C)CC)[C@@H](C)CC)[C@@H](C)O)[C@@H](C)O)C(C)C)C(C)C [melittin, reference compound] |  |  |  |  |  | MIC MRSA CCARM 3089 [7]: 8 µg/mL (≈ 2.81 µM); MIC MRSA CCARM 3090 [8]: 8 µg/mL (≈ 2.81 µM); MIC MRSA CCARM 3095 [9]: 16 µg/mL (≈ 5.62 µM); MIC MDRPA CCARM 2095 [10]: 8 µg/mL (≈ 2.81 µM); MIC MDRPA CCARM 2109 [11]: 8 µg/mL (≈ 2.81 µM); antibacterial activity after incubation with trypsin (trypsin): lose its antibacterial activity entirely
